Results on eleven compounds are retold here after patent publication US5043179A, “Triol triester derivatives as low calorie fat mimetics” (Nabisco Brands, Inc., priority 1990, dated 1991).

Series [1] in a line: caloric availability by in vivo animal feeding study (body weight gain). Also on record: species or system Sprague-Dawley rats. The settings on record: rats, diet of 50% fort and 21% test compound, 14 days. From the text: This example illustrates how the triol triesters of this invention are screened for caloric availability by a carefully controlled in vivo animal feeding study.
An experimental relationship between total calories ingested and animal body weight gain is established by monitoring the body weight gain associated with consumption of a nutritionally balanced diet containing varying concentrations of a reference substance such as corn oil which has a known caloric availability. Correlations between total calories ingested and body weight gain are excellent (r=0.99).
Caloric availability of an unknown substance is evaluated by substituting a specific weight of the unknown substance for the reference substance and observing the body weight gain. The gain in body weight is equated to a total number of calories using the correlation previously established for the reference data. The estimated number of calories ingested are divided by the weight of unknown substance to give the apparent calories per gram for the unknown substance. Generally speaking, in these bioavailability studies, the degree of perianal pelt soiling correlates with reduced bioavailability.
The test animals are six-week-old male Sprague-Dawley rats obtained from the Portage, Michigan facility of the Charles River Laboratories, Inc. After acclimation for 15 days, the test duration is 14 days. […]

A short description of series [2]: in vitro digestibility screen using pancreatic lipase (TLC analysis). Type of series: in vitro ADME, porcine. The settings on record: pig, two-hour incubation, 37° C., pH 7.1, TLC, read-out: hydrolyzed by pancreatic lipase. As for the experimental part:
This example outlines the procedure for screening the in vitro digestibility of the triester derivatives of this invention using pancreatic lipase.
(§1) 1. Buffer: A pH 7.1 phosphate buffer is prepared by dissolving 6.8 g. KH2 PO4 in 1 L. of millipore filtered water (to yield 0.05 M phosphate). Fifty mg. Ca(NO3)2 and 5.0 g. cholic acid (Na^+ salt, an ox bile isolate from Sigma) are added to give 0.3 mM Ca++ and 0.5% cholic acid in 0.05 M phosphate. The pH is adjusted to approximately 7.1 with solid NaOH. Several drops of Baker "Resi-analyzed " toluene are added to prevent bacterial growth during storage at 3°-5° C.
(§2) 2. Lipase: About 15 mg/mL commercial porcine pancreatic lipase from U.S. Biochemical Corporation is dissolved in buffer.
3. Substrates and Standards: A 1.0 mL volumetric flask is charged with an amount of lipid substrate (test substance or standard) calculated to give a concentration of 200 nanomoles per microliter in Baker "Resi-analyzed " toluene. (The proper concentration may be approximated by doubling the molecular weight of the lipid in question, dividing by 10, and diluting to the mark; this yields about 200 nanomoles per microliter.) This preparation affords the substrate to be used in the hydrolysis reactions. […]

Series [3] can be described thus: lipase assay as in Example 7, with super fluid chromatography to separate hydrolysis products. Type of series: in vitro ADME, porcine. The settings on record: pig, pancreatic lipase, pH 7.1, one hour incubation, read-out: hydrolyzed by pancreatic lipase. As for the experimental part: as §1, §2
(§3) 3. Substrates and Standards: A 1.0 mL volumetric flask is charged with an amount of lipid substrate (test substance or standard) calculated to give a concentration of 200 nanomoles per microliter in Baker "Resi-analyzed " toluene. (The proper concentration may be approximated by doubling the molecular weight of the lipid in question, dividing by 10, and diluting to the mark; this yields about 200 nanomoles per microliter.) This preparation affords the substrate to be used in the hydrolysis reactions.
(§4) In a 25 mL Erlenmeyer, emulsify 20 mL buffer and 40 microliters of substrate using an ultrasonic disrupter at a microtip maximum setting for approximately 10 seconds. […] Place in a 37° C. water bath and stir vigorously. After temperature equilibration, add 40 microliters of enzyme solution and start timing. […]

For series [4] the following is noted: cited from earlier work.
For series [5] the following is noted: fed to rats; cited from earlier work.
A further series concerns nonspecific lipase. The settings on record: pancreatic lipase inhibited by taurocholate; cited from earlier work.
A further series concerns pancreatic lipase. The series is described as follows: lipase assay as in Example 7, with super fluid chromatography to separate hydrolysis products. It is filed as in vitro ADME, porcine. The following applies: one hour incubation. Here is the method: as §1, §2, §3, §4

With `CCCCCCCC/C=C\CCCCCCCC(=O)OCCC(COC(=O)CCCCCCC/C=C\CCCCCCCC)OC(=O)CCCCCCC/C=C\CCCCCCCC` (stereo not shown) [Example 4, 1,2,4-Butane trioleate], the “caloric availability (kcal/gram yielded upon being metabolized)” value in series [1] is on record as “about 7.7 kcal/gram”. Also, the metabolised at 2 h in series [2] was ~50%.

Regarding `CCCCCCCCCCCCCC(=O)OCCCCC(COC(=O)CCCCCCCCCCCCC)OC(=O)CCCCCCCCCCCCC` (stereo not shown) [Example 5, 1,2,6-hexane trimyristate], in series [3], the metabolised at 1 h was ~20%. For `CCCCCCCC/C=C\CCCCCCCC(=O)OC[C@H](OC(=O)CCCCCCC/C=C\CCCCCCCC)[C@@H](COC(=O)CCCCCCC/C=C\CCCCCCCC)OC(=O)CCCCCCC/C=C\CCCCCCCC` [erythritol tetraoleate], the “hydrolysis in vivo (free tagged erythritol in urine)” value in series [4] (rats) was “hydrolyzed in vivo”. Further, the “rate of appearance of fatty acids in the lymph” value in series [4] (thoracic duct cannulated rats) is reported as “slower rate than glycerol trioleate”. For the same compound, the “absorption in fat balance study” value in series [5] is recorded as “absorbability decreased”. The “hydrolysis by nonspecific lipase” value in the series on nonspecific lipase is given as “stepwise hydrolysis”.

`CCCCCCCC/C=C\CCCCCCCC(=O)OCCOC(=O)CCCCCCC/C=C\CCCCCCCC` [ethylene glycol dioleate]: in series [5], the “absorption in fat balance study” value is reported as “absorbed”. Further, the “hydrolysis by nonspecific lipase” value with nonspecific lipase was “hydrolyze”. With `CCCCCCCC/C=C\CCCCCCCC(=O)OC` [methyl oleate], in series [5], the “absorption in fat balance study” value was “absorbed”. Moreover, in the series on nonspecific lipase, the “hydrolysis by nonspecific lipase” value is on record as “hydrolyze”. For the compound `CCCCCCCC/C=C\CCCCCCCC(=O)OCC(COC(=O)CCCCCCC/C=C\CCCCCCCC)(COC(=O)CCCCCCC/C=C\CCCCCCCC)COC(=O)CCCCCCC/C=C\CCCCCCCC` [pentaerythritol tetraoleate], the “absorption in fat balance study” value in series [5] is “absorbability decreased”. For `CCCCCCCC/C=C\CCCCCCCC(=O)OC[C@H](OC(=O)CCCCCCC/C=C\CCCCCCCC)[C@@H](OC(=O)CCCCCCC/C=C\CCCCCCCC)[C@H](OC(=O)CCCCCCC/C=C\CCCCCCCC)[C@@H](COC(=O)CCCCCCC/C=C\CCCCCCCC)OC(=O)CCCCCCC/C=C\CCCCCCCC` [sorbitol hexaoleate], in series [5], the “absorption in fat balance study” value was “not absorbed”. Regarding `CCCCCCCC/C=C\CCCCCCCC(=O)OC[C@H]1O[C@@](COC(=O)CCCCCCC/C=C\CCCCCCCC)(O[C@H]2O[C@H](COC(=O)CCCCCCC/C=C\CCCCCCCC)[C@@H](OC(=O)CCCCCCC/C=C\CCCCCCCC)[C@H](OC(=O)CCCCCCC/C=C\CCCCCCCC)[C@H]2OC(=O)CCCCCCC/C=C\CCCCCCCC)[C@@H](OC(=O)CCCCCCC/C=C\CCCCCCCC)[C@@H]1OC(=O)CCCCCCC/C=C\CCCCCCCC` [sucrose octaoleate], the “absorption in fat balance study” value in series [5] is recorded as “not absorbed”.

`CCCCCCCCCCCCCC(=O)OCC(COC(=O)CCCCCCCCCCCCC)OC(=O)CCCCCCCCCCCCC` [trimyristin]: in the series on pancreatic lipase, the “hydrolysis by pancreatic lipase (in words)” value is given as “almost fully hydrolyzed”. Turning to `CCCCCCCC/C=C\CCCCCCCC(=O)OCC(COC(=O)CCCCCCC/C=C\CCCCCCCC)OC(=O)CCCCCCC/C=C\CCCCCCCC` [triolein], the “absorption in fat balance study” value in series [5] was “absorbed”. The “hydrolysis by nonspecific lipase” value in the series on nonspecific lipase is on record as “hydrolyze”. The metabolised at 2 h in series [2] was ~90%. With `CCCCCCCC/C=C\CCCCCCCC(=O)OC[C@H](OC(=O)CCCCCCC/C=C\CCCCCCCC)[C@@H](OC(=O)CCCCCCC/C=C\CCCCCCCC)[C@@H](COC(=O)CCCCCCC/C=C\CCCCCCCC)OC(=O)CCCCCCC/C=C\CCCCCCCC` [xylitol pentaoleate], in series [5], the “absorption in fat balance study” value was “absorbability decreased”.
